# Data taken from patent publication US12128023B2, “Pharmaceutical composition containing B-lapachone as active ingredient for prevention or treatment of cholestatic liver disease” (CUROME BIOSCIENCES CO., LTD., priority 2020, dated 2024).
# Experiments:
# [1] = tested on: DDC-induced cholestatic liver disease mice; assay: Preventive effect in DDC-induced cholestatic liver disease mouse animal models (β-lapachone given 3 days before DDC); assay type: in vivo, C57BL/6 male mice
# Description: DDC-induced cholestatic liver disease mouse animal models were prepared according to the method of Elisa Pose et al. by using 8-week-old C57BL/6 male mice (Samtako, Korea). Briefly, cholestatic liver disease was induced by feeding a standard rodent diet supplemented with 0.1% (w/w) DDC for 7 or 14 days. The 12-hour light and dark cycle was maintained and animals were allowed to free access to water. The standard rodent diet included medium wheat, wheat, corn, and corn gluten flour, and soybean oil (14% protein). All animal related procedures were reviewed and approved by the Institutional Animal Care and Use Committee of Korea Research Institute of Bioscience and Biotechnology (KRIBB), KRIBB-AEC-20165). The tissue staining of the cholestatic liver disease animal models was measured through H&E staining (basic tissue staining), Sirius Red staining (collagen staining), and Masson's trichrome staining (collagen, cytoplasm, muscle fibers, etc.), and the tissue staining was measured by a skilled researcher. To investigate the preventive effect of β-Lapachone (BL) on cholestatic liver disease, the mice were fed a diet with 0 (DDC-vehicle), 40 mg/kg (DDC-BL40) and 80 mg/kg (DDC-BL80) 3 days before DDC treatment (total 17 days) and, after 3 days, were fed a diet with DDC (total 14 days). After 14 days of DDC treatment, the mice were sacrificed and the liver was harvested including the portal vein (PV) and bile ducts of the mice, and the surrounding lesions were confirmed by H&E, and are shown in FIG. 1. The liver harvested in Example 2.1 was investigated for tissues or connective tissues around cells through Sirius Red and Masson's trichrome staining, which are shown in FIG. 2A. The expression of the factors in the liver tissue obtained from the cholestatic liver disease mouse animal models of Example 2.1 was performed by a real-time polymerase chain reaction was performed according to the following procedure. Total RNA from liver samples was extracted using Tri-RNA Reagent (Favrogen BIOTECH CORP, Nong-Ke Rd, Taiwan) according to the procedure presented by Favrogen, and was reverse transcribed into cDNA by using PrimeScript™ RT reagent Kit with gDNA Eraser (TAKARA Korea Biomedical Inc, Seoul, 08506, Korea). Quantitative PCR was performed using TB Green™ Premix Ex Tag™ II (Tli RNaseH Plus), ROX plus (TAKARA Korea Biomedical Inc, Seoul, 08506, Korea) and QuantStudio 5 Real-Time PCR Instrument (Thermo Fisher Scientific, Waltham, MA, USA).
# [2] = tested on: DDC-induced cholestatic liver disease mice; assay: DDC-induced cholestatic liver disease mice, DDC and β-lapachone administered together for 7 days; assay type: in vivo, C57BL/6 male mice
# Description: To investigate the effect of β-lapachone (BL) on the occurrence of cholestatic liver disease, both […] and β-lapachone were administered to mice to characterize animal models.
# After 8-week-old C57BL/6 male mice (Samtako, Korea) were divided into each group (=6), the mice were fed a diet with normal (vehicle), control (DDC), DDC-+β-lapachone 20 mg/kg, DDC+β-lapachone 40 mg/kg, DDC+β-lapachone 80 mg/kg, DDC+β-lapachone 100 mg/kg, and positive control DDC+ursodeoxycholic acid 100 mg/kg, and DDC+obeticholic acid 30 mg/kg (total 7 days). After 7 days of treatment, the mice were sacrificed and then the blood was collected from the heart. Thereafter, the levels of alanine aminotransferase (ALT), aspartate aminotransferase (AST), alkaline phosphatase (ALP), and bilirubin, which are blood indexes, were analyzed, and shown in FIG. 4.
# After the cholestatic liver disease mouse animal models in Example 3.1 were sacrificed and the liver tissue was harvested therefrom, the mRNA levels of fibrosis-related genes were measured by a method similar to the method in Example 2.3.
# In the cholestatic liver disease, the inflammation in the portal vein and damage to the bile ducts in the liver occur chronically, resulting in cholestasis and liver fibrosis. The mRNA levels of inflammatory cytokine genes in the liver tissue of the cholestatic liver disease mouse animal models obtained by the same method as in Example 3.1 were measured, and shown in FIG. 6.
# [3] = tested on: DDC-induced cholestatic liver disease mice; assay: Treatment effect in cholestatic liver disease-induced mice (DDC 3 days, then treatment 4 days); assay type: in vivo, C57BL/6 male mice
# Description: The treatment effect of β-lapachone in cholestatic liver disease-induced mouse animals were investigated. After 8-week-old C57BL/6 male mice (Samtako, Korea) were divided into each group (=6), each group excluding a control group was fed a diet containing 0.1% DDC for 3 days. Thereafter, the mice were fed a diet with DDC control (vehicle), DDC-+β-lapachone 20 mg/kg, DDC-+β-lapachone 40 mg/kg, DDC-+β-lapachone 80 mg/kg, and positive control DDC+obeticholic acid 30 mg/kg for 4 days (total 7 days). After 7 days of feeding, the mice were sacrificed and then the blood was collected from the heart.
# [4] = tested on: Poly I:C-induced cholestatic liver disease animal models; assay: Treatment effect in Poly I:C-induced primary biliary cirrhosis (PBC) mouse animal models; assay type: in vivo, C57BL/6 male mice
# Description: Of cholestatic liver diseases, primary biliary cirrhosis (PBC) may be introduced to a similar state by using a viral RNA mimic and the Toll-like receptor polyinosinic-polycytidylic acid (Poly I:C). After 8-week-old C57BL/6 male mice (Samtako, Korea) were divided into each group (=6), each experimental group excluding a normal group was intraperitoneally administered 5 mg/kg Poly I:C twice a week for 8 weeks. Thereafter, the mice were fed a diet with control (vehicle), β-lapachone 40 mg/kg, β-lapachone 80 mg/kg, and positive control ursodeoxycholic acid 100 mg/kg and obeticholic acid 30 mg/kg for 8 weeks. On the 16th week of treatment, the experiment was ended, and the mice were sacrificed and then the blood was collected from the heart.
# [5] = tested on: DSS-induced inflammatory bowel disease mice; assay: DSS-induced inflammatory bowel disease (acute colitis) mouse models; assay type: in vivo, C57BL/6 female mice; details: for mortality (percent of mice that died): 14th day of the experiment, 70% died in DSS-induced IBD mice
# Description: Dextran sodium sulfate (DSS)-induced acute colitis mouse models were constructed using 8-week-old C57BL/6 female mice (Samtako, Korea).
# After 8-week-old C57BL/6 female mice (Samtako, Korea) were divided into each group (=10), each experimental group was fed a standard rodent diet supplemented with 3% (w/w) DSS in drinking water for the first 5 days to induce acute colitis and orally administered control (vehicle), β-lapachone 40 mg/kg, and β-lapachone 80 mg/kg for 14 days.
# All animal-related procedures were discussed and approved by the Institutional Animal Care and Use Committee of the Hanyang University. The survival rate over time is shown in FIG. 9, and the change rate in body weight of mice in each experimental group was measured and shown in FIG. 10A. The fecal occult bleeding per rectum, total bleeding loss, and fecal concentration were measured daily.
# By the same method as in Example 6.1, experimental groups were divided into a DSS untreated group (Control), a DSS treated group, and a DSS-+β-lapachone 80 mg/kg treated group, respectively, and treated. After the end of the experiment, the mice were sacrificed to remove the colon, and the accurate colon length was measured using a Vernier caliper, and is shown FIGS. 11A and 11B. In addition, the mRNA levels of genes of interleukin-1beta (IL-1β), interleukin-6 (IL-6), interleukin-18 (IL-18), interferon-γ (INF-γ), tumor necrosis factor-α (TNF-α), tumor necrosis factor-β (TNF-β), and monocyte chemoattractant protein-1 (MCP-1), which were inflammatory cytokine factors in the colon tissue, were analyzed by a real-time polymerase chain reaction through a conventional experiment procedure, and are shown in FIG. 12.
# [6] = tested on: LX-2 hepatic stellate cell line; assay: Fibronectin and α-SMA protein expression in TGF-β1-treated LX-2 hepatic stellate cell line (immunoblotting); assay type: cell-based; details: LX-2, 1 ng/ml TGF-β1 + 0.5 or 1 μM β-lapachone, 24 hours
# Description: Considering that inflammation and fibrosis of bile ducts cause cirrhosis in cholestatic liver disease, experiments were performed on the LX-2 hepatic stellate cell line model by using the method of Takaaki Higashi et al. (2017). The LX-2 cell line was subcultured in DMEM containing 10% FBS, 2 mM glutamine, 100 U penicillin, and 0.1 mg/ml streptomycin. The LX-2 cell line was added into a 6-well plate at a density of 16×10^4 cells/well, and cultured in DMEM containing 1 ng/ml TGF-β1, 1 ng/ml TGF-β1+0.5 μM β-lapachone or 1 ng/ml TGF-β1+1 μM β-lapachone for 24 hours. Thereafter, the protein expression levels of the fibrosis-related genes fibronectin and α-SMA of the obtained cells were measured by protein immunoblotting according to a conventional method known in the art.
# [7] = tested on: macrophage line Raw264.7; assay: Inflammatory cytokine release in LPS and ATP treated macrophage line Raw264.7 (ELISA); assay type: cell-based; details: Raw264.7, LPS 100 ng/ml, ATP 2.5 mM, 0.2, 0.5, 1, 2 μM β-lapachone, 24 hours; supernatant ELISA
# Description: The macrophage line Raw264.7 (ATCC TIB-71, Manassas, VA, USA) was subcultured in DMEM supplemented with 10% FBS and 1% penicillin/streptomycin.
# For inflammation induction, RAW264.7 cells were suspended in DMEM containing 2% FBS, inoculated in a 12-well plate to a cell number of 4×10^5/ml, and incubated in 5% CO2 incubator at 37° C. for 24 hours. With replacement with fresh media, the cells were treated with appropriate concentrations of a corresponding substance, LPS (100 ng/ml), and 0.2, 0.5, 1, and 2 μM β-lapachone, cultured for 24 hours, treated with ATP (2.5 mM), and then cultured for additional 30 minutes, and the supernatant was collected. The release of cytokines (IL-1β and TNF-α) of RaW264.7 macrophages was quantified using each cell-free supernatant-ELISA set (Invitrogen, Billerica, MA, USA) by Invitrogen according to the manufacture's instruction, and is shown in FIG. 14.
# [8] = tested on: peripheral blood mononuclear cells (PBMCs); assay: IL-1β and IL-18 expression in LPS and ATP treated peripheral blood mononuclear cells; assay type: cell-based, C57BL/6 male mice; details: LPS 200 ng/mL and ATP, β-lapachone 0.5, 1, 2 μM, 4 hours
# Description: Considering that inflammatory cytokines mediate the pathogenic mechanism of cholestatic liver disease, the peripheral blood mononuclear cell model was used by a modified method of Boyum et al. (1968). Peripheral blood mononuclear cells isolated from healthy 8-week-old C57BL/6 male mice (Samtako, Korea) were maintained by primary culture in RPMI-1640 medium containing 10% FBS, 2 mM glutamine, 100 U penicillin, and 0.1 mg/ml streptomycin. Stable peripheral blood mononuclear cells (PBMCs) were treated with LPS at 200 ng/mL and ATP and β-lapachone at 0, 0.5, 1, 2 μM in the medium and, after 4 hours, the expression levels of IL-1β and IL-18 were investigated, and the results are shown in FIG. 15.
# [9] = liver mRNA, DDC-BL40 and DDC-BL80 vs DDC-vehicle
# [10] = DDC + β-lapachone 20, 40, 80, 100 mg/kg in diet, depending on the concentration
# [11] = liver mRNA, DDC + β-lapachone, depending on the concentration
# [12] = vs ursodeoxycholic acid 100 mg/kg and obeticholic acid 30 mg/kg
# [13] = 0.1% DDC 3 days, then DDC + β-lapachone 20, 40, 80 mg/kg in diet 4 days, depending on the concentration
# [14] = Poly I:C 5 mg/kg i.p. 8 weeks, then β-lapachone 40, 80 mg/kg in diet 8 weeks
# [15] = DSS + β-lapachone 80 mg/kg vs DSS
smiles,measurement,setting,value
CC1(C)CCC2=C(O1)c1ccccc1C(=O)C2=O [β-lapachone],lesions around the portal vein (PV) and bile ducts (H&E),"[1]; DDC-BL40 and DDC-BL80 (40 and 80 mg/kg in diet, 17 days; DDC 14 days) compared with DDC-vehicle, concentration dependent",significant lesion reductions
same,transcriptional level of Col1α1,[1]; [9],significantly reduced
same,transcriptional level of Col4α1,[1]; [9],significantly reduced
same,transcriptional level of TGF-β1,[1]; [9],significantly reduced
same,transcriptional level of fibronectin,[1]; [9],significantly reduced
same,transcriptional level of α-SMA,[1]; [9],significantly reduced
same,formation of connective tissues (Sirius Red and Masson's trichrome staining),[1]; liver of DDC mice treated with β-lapachone 40 and 80 mg/kg vs DDC-vehicle,inhibited such fibrosis progression
same,ALP in the blood,[2]; [10],inhibited
same,ALT in the blood,[2]; [10],inhibited
same,AST in the blood,[2]; [10],inhibited
same,bilirubin in the blood,[2]; [10],inhibited
same,transcriptional level of IL-1β,"[2]; liver mRNA, DDC + β-lapachone",inhibited
same,transcriptional level of TNFα,"[2]; liver mRNA, DDC + β-lapachone",inhibited
same,transcriptional level of Col1α1,[2]; [11],inhibited
same,transcriptional level of Col1α2,[2]; [11],inhibited
same,transcriptional level of TGF-β1,[2]; [11],inhibited
same,"effect on blood indexes (ALT, AST, ALP, bilirubin) compared with positive controls",[2]; [12],excellent effects compared with ursodeoxycholic acid (UDCA) and obeticholic acid (OCA)
same,ALP in the blood,[3]; [13],inhibited
same,bilirubin in the blood,[3]; [13],inhibited
same,"effect on blood indexes (bilirubin, ALP) compared with positive controls",[3]; vs ursodeoxycholic acid (UDCA) and obeticholic acid (OCA),excellent effect compared with ursodeoxycholic acid (UDCA) and obeticholic acid (OCA)
same,ALP in the blood,[4]; [14],inhibited
same,ALT in the blood,[4]; [14],inhibited
same,AST in the blood,[4]; [14],inhibited
same,"effect on blood indexes (AST, ALT, ALP) compared with comparative substances",[4]; [12],excellent effect compared with the comparative substances ursodeoxycholic acid (UDCA) and obeticholic acid (OCA)
same,mRNA level of IL-1β in colon tissue,[5]; [15],significantly reduced
same,mRNA level of IL-6 in colon tissue,[5]; [15],significantly reduced
same,mRNA level of IL-18 in colon tissue,[5]; [15],significantly reduced
same,mRNA level of INF-γ in colon tissue,[5]; [15],significantly reduced
same,mRNA level of MCP-1 in colon tissue,[5]; [15],significantly reduced
same,mRNA level of TNF-α in colon tissue,[5]; [15],significantly reduced
same,mRNA level of TNF-β in colon tissue,[5]; [15],significantly reduced
same,colon length,[5]; DSS + β-lapachone 80 mg/kg vs DSS treated group,recovered
same,colitis score,"[5]; sum of scores for body weight reduction, feces condition, blood feces (Table 3), β-lapachone 40 and 80 mg/kg",reduced depending on the treatment concentration
same,mortality (percent of mice that died),[5]; β-lapachone 40 mg/kg orally,50%
same,mortality (percent of mice that died),[5]; β-lapachone 80 mg/kg orally,20%
same,protein expression level of fibronectin increased by TGF-β1,[6],reduced depending on the concentration
same,protein expression level of α-SMA increased by TGF-β1,[6],reduced depending on the concentration
same,expression level of IL-1β protein increased by LPS and ATP,[7],reduced depending on the concentration
same,expression level of TNF-α protein increased by LPS and ATP,[7],reduced depending on the concentration
same,expression level of IL-1β increased by LPS and ATP,[8],reduced depending on the concentration
same,expression level of IL-18 increased by LPS and ATP,[8],reduced depending on the concentration
